Experimental data published in patent US6100074A, “Mutant mono-oxygenase cytochrome P-450 cam” (BG plc, priority 1994, dated 2000).
Like-named read-outs stand apart in the source and are kept apart here.

Legend:
P-450cam mutant Y96A [1] = target: T1, P-450cam mutant Y96A (Pseudomonas putida, UniProt P00183, Y97A); experiment: biochemical; assay type: binding; settings: for percent displacement of bound DTT at 200 µM / Vs DTT (percentage displacement of DTT bound to P-450): phosphate buffer; for percent displacement of bound DTT at 200 µM / inhibition at 200 µM: read-out: Vs DTT (percentage displacement of DTT bound to P-450); for Vs DTT (percentage displacement of DTT bound to P-450): 200 µM
P-450cam mutant Y96A [2] = target: T1, P-450cam mutant Y96A; assay type: biochemical; parameters: key: Those substrates where oxidation has been demonstrated by means of NADH turnover are marked with a + sign
wild type P450cam [3] = target: T2, wild type P450cam (Pseudomonas putida, UniProt P00183); experiment: biochemical; assay type: binding; settings: read-out: Vs DTT (percentage displacement of DTT bound to P-450)
Target sequence in this assay (P00183 whole entry): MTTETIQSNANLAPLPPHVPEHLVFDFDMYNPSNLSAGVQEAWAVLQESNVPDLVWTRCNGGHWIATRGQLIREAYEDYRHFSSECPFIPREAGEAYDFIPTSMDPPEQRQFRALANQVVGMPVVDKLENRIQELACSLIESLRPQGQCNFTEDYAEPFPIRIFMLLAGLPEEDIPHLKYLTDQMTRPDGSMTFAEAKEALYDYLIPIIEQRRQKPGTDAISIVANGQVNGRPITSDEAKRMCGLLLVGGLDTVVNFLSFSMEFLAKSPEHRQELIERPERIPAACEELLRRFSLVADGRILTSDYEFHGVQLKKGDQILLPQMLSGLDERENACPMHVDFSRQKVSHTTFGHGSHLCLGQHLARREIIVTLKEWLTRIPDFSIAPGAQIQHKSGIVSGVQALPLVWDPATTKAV

[4] = target: T3, P450cam mutant Y96A, C334A (Pseudomonas putida, UniProt P00183, C335A/Y97A); assay type: biochemical, P. putida; settings: also contains C334A
T3 construct: reconstituted with putidaredoxin and putidaredoxin reductase
Experimental: A solution containing 10 μM putidaredoxin, 2 μM putidaredoxin reductase, 1 μM cytochrome P-450cam mono-oyxgenase (wild-type or mutant) and 1 mM diphenylmethane in 100 mM KC1, 20 mM KH2 PO4 pH7.4 was preincubated at 25° C. in a shaker for 5 min. The enzymatic reaction was initiated by firstly adding NADH to a total concentration of 2 mM. Further four aliquots of NADH (to increase the NADH concentration by 1 mM each time) were added in intervals of 5 min and the reaction quenched after 30 min by adding 0.5 ml chloroform. The chloroform layer was analysed by gas chromatography.
(§1) Reaction products for some substrate compounds have been purified by high performance liquid chromatography and identified by mass spectroscopy, nuclear magnetic resonance, and/or co-elution. […] Table 4(a) to 4(h) details the product distributions for mutant and substrate combinations where this has been elucidated to date.
All mutants listed below also contain the C334A mutation.
Turnover rate measured as NADH consumption rate
(nmole NADH/nmole P450cam/s).

wild type P450cam [5] = target: T2, wild type P450cam; assay type: binding; settings: Wild type; 200 μM test compound, phosphate buffer pH 7.4
Target sequence in this assay (P00183 whole entry): as above

[6] = target: T3, P450cam mutant Y96A, C334A; assay type: biochemical, P. putida
Experimental: (§2) […] The enzymatic reaction was initiated by firstly adding NADH to a total concentration of 2 mM. Further four aliquots of NADH (to increase the NADH concentration by 1 mM each time) were added in intervals of 5 min and the reaction quenched after 30 min by adding 0.5 ml chloroform. The chloroform layer was analysed by gas chromatography.
as §1
(§3) Product structure and distributions following oxidation of substrates
(§4) active site mutants. All mutants shown below also contain the C334A

[7] = target: T4, P450cam mutant F87A-F96G-F193A (C334A) (Pseudomonas putida, UniProt P00183, C335A/F194A/F88A/Y97G); assay type: biochemical, P. putida
T4 construct: reconstituted with putidaredoxin and putidaredoxin reductase
Experimental: as §2, §1, §3, §4

wild type P450cam [8] = target: T2, wild type P450cam; experiment: Product distribution following oxidation of substrates, WT; assay type: biochemical, P. putida; parameters: reconstituted with putidaredoxin and putidaredoxin reductase
Experimental: as §2, §1, §3
Target sequence in this assay (P00259 whole entry): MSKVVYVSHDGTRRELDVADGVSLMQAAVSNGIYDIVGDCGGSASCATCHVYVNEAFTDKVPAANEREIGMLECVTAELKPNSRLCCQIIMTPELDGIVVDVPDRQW
Target sequence in this assay (P00183 whole entry): as the sequence (P00183 whole entry) above
Target sequence in this assay (P16640 whole entry, further chain): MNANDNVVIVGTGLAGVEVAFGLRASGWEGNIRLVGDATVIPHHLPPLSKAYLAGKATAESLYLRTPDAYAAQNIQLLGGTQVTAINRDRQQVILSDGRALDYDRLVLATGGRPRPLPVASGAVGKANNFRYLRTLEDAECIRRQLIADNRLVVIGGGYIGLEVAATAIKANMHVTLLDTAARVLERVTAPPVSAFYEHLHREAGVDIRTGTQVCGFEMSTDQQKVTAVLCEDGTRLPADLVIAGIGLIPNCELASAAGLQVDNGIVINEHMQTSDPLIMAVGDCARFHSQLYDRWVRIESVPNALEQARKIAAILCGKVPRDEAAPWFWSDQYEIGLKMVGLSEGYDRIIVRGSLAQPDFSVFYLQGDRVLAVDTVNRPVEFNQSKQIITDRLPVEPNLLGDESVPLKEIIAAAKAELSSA

[9] = target: T5, P450cam mutant Y96F, C334A (Pseudomonas putida, UniProt P00183, C335A/Y97F); assay type: biochemical, P. putida
T5 construct: reconstituted with putidaredoxin and putidaredoxin reductase
Experimental: as §2, §1, §3, §4

[10] = target: T6, P450cam mutant Y96L, C334A (Pseudomonas putida, UniProt P00183, C335A/Y97L); experiment: Product distribution following oxidation of substrates, Y96L (also C334A); assay type: biochemical, P. putida
T6 construct: reconstituted with putidaredoxin and putidaredoxin reductase
Experimental: as §2, §1, §3, §4

[11] = target: T7, P450cam mutant Y96V, C334A (Pseudomonas putida, UniProt P00183, C335A/Y97V); experiment: Product distribution following oxidation of substrates, Y96V (also C334A); assay type: biochemical, P. putida
T7 construct: reconstituted with putidaredoxin and putidaredoxin reductase
Experimental: as §2, §1, §3, §4

[12] = Mutant Y96A, 200 μM DTT, 200 μM test compound
[13] = Wild type, 200 μM DTT, 200 μM test compound, phosphate buffer

T5 sequence (P16640 whole entry): as the sequence (P16640 whole entry, further chain) above
T5 sequence (P00183 2-415 Y97F/C335A): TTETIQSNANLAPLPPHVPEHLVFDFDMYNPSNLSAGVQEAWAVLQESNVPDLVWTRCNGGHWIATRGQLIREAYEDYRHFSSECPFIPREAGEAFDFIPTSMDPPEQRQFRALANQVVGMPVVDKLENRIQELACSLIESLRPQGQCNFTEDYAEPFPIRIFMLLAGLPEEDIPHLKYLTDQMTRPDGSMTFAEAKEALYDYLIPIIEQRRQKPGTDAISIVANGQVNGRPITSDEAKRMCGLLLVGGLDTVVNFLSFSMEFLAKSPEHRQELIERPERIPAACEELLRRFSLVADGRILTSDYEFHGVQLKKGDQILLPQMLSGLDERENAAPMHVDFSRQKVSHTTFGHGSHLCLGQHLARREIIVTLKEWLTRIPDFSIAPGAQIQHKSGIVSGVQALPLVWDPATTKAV
T5 sequence (P00259 whole entry, further chain): as the sequence (P00259 whole entry) above
T7 sequence (P16640 whole entry): as the sequence (P16640 whole entry, further chain) above
T7 sequence (P00259 whole entry, further chain): as the sequence (P00259 whole entry) above
T7 sequence (P00183 2-415 Y97V/C335A): as the sequence (P00183 2-415 Y97F/C335A) above, with F96V counted along it
T1 sequence (P00183 2-415 Y97A): as the sequence (P00183 2-415 Y97F/C335A) above, with F96A, A334C counted along it
T3 sequence (P00259 whole entry): as the sequence (P00259 whole entry) above
T3 sequence (P00183 2-415 Y97A/C335A): as the sequence (P00183 2-415 Y97F/C335A) above, with F96A counted along it
T3 sequence (P16640 whole entry, further chain): as the sequence (P16640 whole entry, further chain) above
T6 sequence (P00259 whole entry): as the sequence (P00259 whole entry) above
T6 sequence (P16640 whole entry, further chain): as the sequence (P16640 whole entry, further chain) above
T6 sequence (P00183 2-415 Y97L/C335A): as the sequence (P00183 2-415 Y97F/C335A) above, with F96L counted along it
T4 sequence (P00259 whole entry): as the sequence (P00259 whole entry) above
T4 sequence (P16640 whole entry, further chain): as the sequence (P16640 whole entry, further chain) above
T4 sequence (P00183 2-415 F88A/Y97G/F194A/C335A): as the sequence (P00183 2-415 Y97F/C335A) above, with F87A, F96G, F193A counted along it

## CCCCCCCCC [n-Nonane]
P-450cam mutant Y96A [1]; [12]
  percent displacement of bound DTT at 200 µM: 45%
P-450cam mutant Y96A [2]
  NADH turnover?: +

## CCCCC [n-Pentane]
Wild type P450cam [3]; [13]
  inhibition at 200 µM: 5%
P-450cam mutant Y96A [1]; [12]
  percent displacement of bound DTT at 200 µM: 40%
[4]
  Turnover rate measured as NADH consumption rate: 5.8 nmole NADH/nmole P450cam/s
P-450cam mutant Y96A [2]
  NADH turnover?: +

## CC1(C)[C@@H]2CC[C@@]1(C)C(=O)C2=O [(1R)-(-)-Camphorquinone]
Wild type P450cam [5]
  ΔSpin high/low (percentage of P-450 converted from low- to high-spin): 80%
Wild type P450cam [3]; [13]
  inhibition at 200 µM: 80%
P-450cam mutant Y96A [1]; [12]
  percent displacement of bound DTT at 200 µM: 80%

## C=C(C)[C@H]1CC=C(C)C(=O)C1 [(S)-(+)-Carvone]
Wild type P450cam [5]
  ΔSpin high/low (percentage of P-450 converted from low- to high-spin): 10%
Wild type P450cam [3]; [13]
  inhibition at 200 µM: 60%
P-450cam mutant Y96A [1]; [12]
  percent displacement of bound DTT at 200 µM: 80%

## CCCCCCCC [n-Octane]
Wild type P450cam [3]; [13]
  inhibition at 200 µM: 5%
P-450cam mutant Y96A [1]; [12]
  percent displacement of bound DTT at 200 µM: 45%
[4]
  Turnover rate measured as NADH consumption rate: 5.8 nmole NADH/nmole P450cam/s
P-450cam mutant Y96A [2]
  NADH turnover?: +

## CC1(C)C(=O)[C@]2(C)CC[C@H]1C2 [(1R)-(-)-Fenchone]
Wild type P450cam [5]
  ΔSpin high/low (percentage of P-450 converted from low- to high-spin): 40%
Wild type P450cam [3]; [13]
  inhibition at 200 µM: 70%
P-450cam mutant Y96A [1]; [12]
  percent displacement of bound DTT at 200 µM: 80%

## C1CCCCC1 [Cyclohexane]
P-450cam mutant Y96A [1]; [12]
  percent displacement of bound DTT at 200 µM: 60%
P-450cam mutant Y96A [2]
  NADH turnover?: +

## c1ccc2c(c1)-c1cccc3cccc-2c13 [Fluoranthene]
[6]
  Total products: 2.7 area/10^6
[6]; fluoranthene
  Products (%): A: 84%
  Products (%): B: 16%
[7]
  Total products: 0.2 area/10^6
[7]; fluoranthene
  Products (%): A: 0%
  Products (%): B: 100%
Wild type P450cam [3]
  inhibition at 200 µM: 5%
P-450cam mutant Y96A [1]
  inhibition at 200 µM: 10%
Wild type P450cam [8]
  Total products: 0 area/10^6
Wild type P450cam [8]; fluoranthene
  Products (%): A: 0%
  Products (%): B: 0%

## CCCCCC(C)C [2-methyl heptane]
[4]
  Turnover rate measured as NADH consumption rate: 2.1 nmole NADH/nmole P450cam/s

## CC1CCCCC1 [Methylcyclohexane]
Wild type P450cam [5]
  ΔSpin high/low (percentage of P-450 converted from low- to high-spin): 50%
Wild type P450cam [3]; [13]
  inhibition at 200 µM: 50%
P-450cam mutant Y96A [1]; [12]
  Vs DTT (percentage displacement of DTT bound to P-450): 70%
  percent displacement of bound DTT at 200 µM: 60%

## CCC(CC)CC [3-ethyl pentane]
[4]
  Turnover rate measured as NADH consumption rate: 16.2 nmole NADH/nmole P450cam/s

## C1=Cc2ccccc2CC1 [1,2-Dihydronaphthalene]
Wild type P450cam [5]
  ΔSpin high/low (percentage of P-450 converted from low- to high-spin): 5%
Wild type P450cam [3]; [13]
  inhibition at 200 µM: 20%
P-450cam mutant Y96A [1]; [12]
  percent displacement of bound DTT at 200 µM: 90%

## c1ccc2c(c1)CCCC2 [1,2,3,4-Tetrahydro naphthalene]
Wild type P450cam [5]
  ΔSpin high/low (percentage of P-450 converted from low- to high-spin): 5%
Wild type P450cam [3]; [13]
  inhibition at 200 µM: 10%
P-450cam mutant Y96A [1]; [12]
  percent displacement of bound DTT at 200 µM: 40%

## CC(C)C(C)C [2,3-dimethyl butane]
[4]
  Turnover rate measured as NADH consumption rate: 16.8 nmole NADH/nmole P450cam/s

## C1=CC2C3C=CC(C3)C2C1 (centres unmarked) [Dicyclopentadiene]
Wild type P450cam [5]
  ΔSpin high/low (percentage of P-450 converted from low- to high-spin): 50%
Wild type P450cam [3]; [13]
  inhibition at 200 µM: 80%
P-450cam mutant Y96A [1]; [12]
  percent displacement of bound DTT at 200 µM: 90%

## CCCCCC [Hexane]
[6]
  Relative activity (WT = 1): 25.5
[9]
  Relative activity (WT = 1): 18.2
P-450cam mutant Y96A [1]
  Vs DTT (percentage displacement of DTT bound to P-450): 40
  inhibition at 200 µM: 60%
[4]
  Turnover rate measured as NADH consumption rate: 6.0 nmole NADH/nmole P450cam/s
P-450cam mutant Y96A [2]
  NADH turnover?: +

## c1ccc(Oc2ccccc2)cc1 [Diphenylether]
Wild type P450cam [5]
  ΔSpin high/low (percentage of P-450 converted from low- to high-spin): 10%
Wild type P450cam [3]; [13]
  inhibition at 200 µM: 5%
P-450cam mutant Y96A [1]; [12]
  percent displacement of bound DTT at 200 µM: 50%

## CCC(C)(C)C [2,2-dimethyl butane]
[4]
  Turnover rate measured as NADH consumption rate: 14.0 nmole NADH/nmole P450cam/s

## C1CC[C@H]2CCCC[C@@H]2C1 [trans-Decahydro naphthalene]
Wild type P450cam [5]
  ΔSpin high/low (percentage of P-450 converted from low- to high-spin): 20%
Wild type P450cam [3]; [13]
  inhibition at 200 µM: 10%
P-450cam mutant Y96A [1]; [12]
  percent displacement of bound DTT at 200 µM: 70%

## c1cc2ccc3cccc4ccc(c1)c2c34 [Pyrene]
[6]
  Total products: 1.2 area/10^6
[9]
  Total products: 1.5 area/10^6
[7]
  Total products: 0.02 area/10^6
[10]
  Total products: 1.5 area/10^6
[11]
  Total products: 1.6 area/10^6
Wild type P450cam [8]
  Total products: 0 area/10^6

## CCCCC(C)C [2-methyl hexane]
[6]
  Relative activity (WT = 1): 2.6
[6]; 2-methyl hexane
  Products (%): 2-methyl-2-hexanol: 74%
  Products (%): 2-methyl-3-hexanol: 4%
  Products (%): 5-methyl-2-hexanol: 8%
  Products (%): 5-methyl-2-hexanone: 14%
[9]
  Relative activity (WT = 1): 2.3
[9]; 2-methyl hexane
  Products (%): 2-methyl-2-hexanol: 72%
  Products (%): 2-methyl-3-hexanol: 7%
  Products (%): 5-methyl-2-hexanol: 5%
  Products (%): 5-methyl-2-hexanone: 16%
[4]
  Turnover rate measured as NADH consumption rate: 10.6 nmole NADH/nmole P450cam/s

## c1ccc(C2CCCCC2)cc1 [Cyclohexylbenzene]
Wild type P450cam [5]
  ΔSpin high/low (percentage of P-450 converted from low- to high-spin): 20%
[6]
  Total products: 7.4 area/10^5
[6]; cyclohexylbenzene
  Products (%): 3-ol: 20%
  Products (%): Cis-4-ol: 45%
  Products (%): Trans-4-ol: 15%
[9]
  Total products: 1.1 area/10^5
[9]; cyclohexylbenzene
  Products (%): Cis-4-ol: 13%
  Products (%): Trans-4-ol: 6%
Wild type P450cam [3]; [13]
  inhibition at 200 µM: 20%
[10]
  Total products: 10.4 area/10^5
[10]; cyclohexylbenzene
  Products (%): Cis-4-ol: 16%
  Products (%): Trans-4-ol: 23%
[11]
  Total products: 12.5 area/10^5
[11]; cyclohexylbenzene
  Products (%): Cis-4-ol: 23%
  Products (%): Trans-4-ol: 10%
Wild type P450cam [8]
  Total products: 0.8 area/10^5
Wild type P450cam [8]; cyclohexylbenzene
  Products (%): Cis-4-ol: 12%
  Products (%): Trans-4-ol: 25%

## CCC(C)C [2-methyl butane]
[4]
  Turnover rate measured as NADH consumption rate: 4.6 nmole NADH/nmole P450cam/s

## c1ccc2ccccc2c1 [Naphthalene]
[6]
  Total products: 1.1 area/10^5
[6]; naphthalene
  Products (%): 1-ol: 100%
  Products (%): 2-ol: 0%
[9]
  Total products: 2.4 area/10^5
[9]; naphthalene
  Products (%): 1-ol: 100%
  Products (%): 2-ol: 0%
[7]
  Total products: 0.1 area/10^5
[7]; naphthalene
  Products (%): 1-ol: 100%
  Products (%): 2-ol: 0%
P-450cam mutant Y96A [1]; [12]
  percent displacement of bound DTT at 200 µM: 20%
[10]
  Total products: 0.7 area/10^5
[10]; naphthalene
  Products (%): 1-ol: 100%
  Products (%): 2-ol: 0%
[11]
  Total products: 1.4 area/10^5
[11]; naphthalene
  Products (%): 1-ol: 100%
  Products (%): 2-ol: 0%
Wild type P450cam [8]
  Total products: 0.016 area/10^5
Wild type P450cam [8]; naphthalene
  Products (%): 1-ol: 100%
  Products (%): 2-ol: 0%
